According to patent publication US6452005B1, “JAK-3 inhibitors for treating allergic disorders” (Parker Hughes Institute, priority 1999, dated 2002):
pIC50: −log10 of the molar value.

Columns and labels:
human JAK3 = molecular target: T1, human JAK3 (Homo sapiens, UniProt P52333); assay: JAK3 kinase inhibition (Table 1 IC50, immune complex kinase assay); format: biochemical; settings: Table 1; measured inhibition values for JAK3 kinase
T1 construct: KL-2 EBV-transformed human lymphoblastoid B cells (native JAK3 kinase assays); endogenous in cells; host or cells: KL-2 EBV-transformed human lymphoblastoid B cell line
T1 sequence (P52333 1-1124): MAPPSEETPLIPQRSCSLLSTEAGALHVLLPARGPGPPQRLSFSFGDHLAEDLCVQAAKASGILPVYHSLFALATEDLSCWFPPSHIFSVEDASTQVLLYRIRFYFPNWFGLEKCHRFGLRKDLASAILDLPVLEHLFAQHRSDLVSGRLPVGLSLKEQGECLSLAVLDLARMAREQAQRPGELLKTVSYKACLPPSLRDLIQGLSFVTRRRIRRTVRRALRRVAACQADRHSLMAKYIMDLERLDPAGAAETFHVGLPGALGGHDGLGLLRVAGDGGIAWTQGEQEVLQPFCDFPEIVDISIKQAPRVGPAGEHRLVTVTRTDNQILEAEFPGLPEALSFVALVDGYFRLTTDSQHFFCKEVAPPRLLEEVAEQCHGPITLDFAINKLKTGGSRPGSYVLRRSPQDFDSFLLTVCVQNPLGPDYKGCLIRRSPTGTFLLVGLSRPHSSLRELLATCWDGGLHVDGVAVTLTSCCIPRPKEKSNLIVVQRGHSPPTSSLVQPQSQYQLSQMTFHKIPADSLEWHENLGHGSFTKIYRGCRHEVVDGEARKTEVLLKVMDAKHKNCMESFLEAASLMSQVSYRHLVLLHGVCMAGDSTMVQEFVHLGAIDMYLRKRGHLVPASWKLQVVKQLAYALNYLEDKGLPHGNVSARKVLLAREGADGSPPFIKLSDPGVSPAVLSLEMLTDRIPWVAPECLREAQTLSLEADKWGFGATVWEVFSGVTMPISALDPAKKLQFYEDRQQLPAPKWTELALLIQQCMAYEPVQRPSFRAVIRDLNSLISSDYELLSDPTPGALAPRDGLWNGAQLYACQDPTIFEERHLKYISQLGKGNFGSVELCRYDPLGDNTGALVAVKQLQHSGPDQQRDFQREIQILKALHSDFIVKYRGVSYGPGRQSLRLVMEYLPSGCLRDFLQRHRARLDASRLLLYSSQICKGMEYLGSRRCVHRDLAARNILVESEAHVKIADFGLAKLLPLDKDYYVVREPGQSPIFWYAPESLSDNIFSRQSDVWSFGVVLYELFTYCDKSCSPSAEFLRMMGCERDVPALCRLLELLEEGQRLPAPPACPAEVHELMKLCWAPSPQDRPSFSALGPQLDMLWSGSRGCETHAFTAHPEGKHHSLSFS
Protocol: Immune Complex Kinase Assays.
KL-2 EBV-transformed human lymphoblastoid B cells (native JAK3 kinase assays) or insect ovary cells (recombinant JAK3 kinase assays) were lysed with NP-40 lysis buffer (50 mM Tris, pH 8, 150 mM NaCl, 5 mM EDTA, 1% NP-40, 100 μM sodium orthovanadate, 100 μM sodium molybdate, 8 μg/ml aprotinin, 5 μg/ml leupeptin, and 500 μM PMSF) and centrifuged 10 minutes at 13000×g to remove insoluble material. Samples were immunoprecipitated with antisera prepared against JAK3. The antisera were diluted and immune complexes collected by incubation with 15 μl protein A Sepharose. After 4 washes with NP-40 lysis buffer, the protein A Sepharose beads were washed once in kinase buffer (20 mM MOPS, pH 7.0, 10 mM MgCl2) and resuspended in the same buffer. Reactions were initiated by the addition of 25 μCi γ[^32P] ATP (5000 Ci/mMole) and unlabeled ATP to a final concentration of 5 μM. Reactions were terminated by boiling for 4 min in SDS sample buffer. Samples were run on 9.5% SDS polyacrylamide gels and labeled proteins will be detected by autoradiography. Following electrophoresis, kinase gels were dried onto Whatman 3M filter paper and subjected to phosphoimaging on a Molecular Imager (Bio-Rad, Hercules, Calif.) as well as autoradiography on film. For each drug concentration, a kinase activity index (KA) was determined by comparing the kinase activity in phosphorimager units (PIU) to that of the baseline sample. In some experiments, cold kinase assays were performed, as described (Uckun et. al., 1998, Clin. Cancer Res., 4:901-912).

BALB/c mice [1] = assay: Passive systemic anaphylaxis model; format: in vivo; settings: pretreated mice
Protocol: FIG. 14B is a photograph showing plasma extravasation during systemic anaphylaxis, evaluated as described in the Examples.
FIG. 14C is a photograph showing results of histopathologic evaluation of mast cell degranulation. Ears were removed 1 hour after the antigen challenge from vehicle treated as well as WHI-P131 treated mice. Formalin-fixed thin sections (3-5 μm) of ears from were stained with Avidin-FITC.
FIG. 4D is a graph showing blood histamine levels of sensitized mice analyzed after antigen challenge. Blood was collected by retro-orbital bleeding and histamine levels were measured by ELISA. Histamine levels are expressed as nM. The histamine levels in the blood of PBS treated mice and IgE/antigen stimulated mice was 493±131 and 7527±2102 nM respectively. The results are the mean±SEM values; n=3.
To induce passive systemic anaphylaxis, BALB/c mice were sensitized with […] DNP-IgE intravenously. At 24 hours DNP-BSA (2 mg) was administered intravenously with 0.5% Evans blue (200 μl). For assessment of vascular leak, animals were sacrificed 30 minutes after the antigen challenge and their foot pads were examined for blue coloration. Histamine levels in plasma were measured 5 minutes after the antigen challenge. […] For histopathologic evaluation of tissue mast cell degranulation, ears of mice were removed 1 hour after the DNP-BSA injection and fixed in 10 percent buffered formalin. Processed thin sections (3-5 μm) were stained with Avidin-FITC (6.25 μg/ml) for 2 hours, washed with PBS to remove unbound dye and then mounted in buffered glycerol, 30 mM triethylenediamine, pH 8.6 (Malaviya et. al., 1994, J. Clin. Invest., 93:1645-1653). In the murine model for antigen induced active anaphylaxis, mice were sensitized with 2 mg BSA in 200 μl aluminum hydroxide gel (Reheis Inc., Berkeley, N.J.). Ten days later anaphylactic shock was induced by the i.v. injection of the animals with 200 μg BSA.

BALB/c mice [2] = assay: IgE/antigen-induced active systemic anaphylaxis model; format: in vivo; settings: BSA-sensitized mice, two doses of 45 mg/kg before challenge; 8 of 15
Protocol: FIG. 14E is a graph showing results of a study of the effect of JAK3 inhibitor WHI-P131 on fatal anaphylaxis in mice. BALB/c mice were sensitized with 100 mg/kg bovine serum albumin in 200 μl of the adjuvant aluminum hydroxide gel (Reheis Inc., Berkeley, N.J.), which favors the production of IgE in response to the presented antigen. Ten days later, mice were treated with two doses of WHI-P131 (45 mg/kg) or vehicle 30 minutes apart and then challenged with an i.v. injection of the 10 mg/kg BSA. Cumulative proportions of mice surviving anaphylaxis-free are shown according to the time after the antigen challenge.
To induce passive systemic anaphylaxis, BALB/c mice were sensitized with […] DNP-IgE intravenously. At 24 hours DNP-BSA (2 mg) was administered intravenously with 0.5% Evans blue (200 μl). For assessment of vascular leak, animals were sacrificed 30 minutes after the antigen challenge and their foot pads were examined for blue coloration. Histamine levels in plasma were measured 5 minutes after the antigen challenge. […] For histopathologic evaluation of tissue mast cell degranulation, ears of mice were removed 1 hour after the DNP-BSA injection and fixed in 10 percent buffered formalin. […]

`COc1cc2ncnc(Nc3ccc(O)cc3)c2cc1OC` [WHI-P131, 4-(4′-Hydroxylphenyl)-amino-6,7-dimethoxyquinazoline] was tested, and the pIC50 (human JAK3) was 4.11, the plasma histamine response (BALB/c mice [1]; 5 minutes after antigen challenge) was “substantially reduced” and the “blue coloring of foot pads (plasma exudation)” value (BALB/c mice [1]; 30 min after antigen challenge) was “no significant blue coloring”. The “fluorescence intensity of avidin-FITC stained tissue mast cells (degranulation)” value (BALB/c mice [1]; ears, after IgE/antigen challenge) was “no reduction in fluorescence intensity” and the “mice surviving without any signs of anaphylaxis” value (BALB/c mice [2]) was 53%.
